Assay results as given in patent US8772250B2, “Compositions and methods for treating ischemia and ischemia-reperfusion injury” (Ischemix, LLC, priority 2010, dated 2014).
Where two headings read alike, the source gives them in different places.

Assays:
[1] = Pharmacokinetic evaluation in rats; format: in vivo; details: both sexes, rat
Experimental: To evaluate systemic exposure to RLip-EA-OH, groups of rats were given single intravenous infusion doses of vehicle (2/sex) or RLip-EA-OH at the same dose levels of 30, 100, or 200 mg/kg (6/sex/group). For the vehicle-treated group, blood samples were collected from all rats at pre-dose and at 30 minutes (+2 minutes) post-dose only. For RLip-EA-OH-treated groups, blood samples were collected from three rats/sex/group at 10 minutes, 30 minutes, 45 minutes and 1, 2, 3, and 4 hours (±2 minutes) after dosing.
Administration was by IV infusion into a surgically-placed catheter in the femoral vein using a syringe pump at a rate of injection no greater than 0.2 mL/min. The dose volume for each animal was based on the most recent body weight measurement and doses were rounded to the nearest 0.1 mL. […]
Samples were placed in tubes containing K3EDTA and stored on ice until centrifuged, under refrigeration, for at least ten minutes at 3000 rpm. After centrifugation, plasma was removed and stored frozen at or below minus 70° C. until shipped to BASi in West Lafayette, Ind. for analysis.
Plasma RLip-EA-OH concentrations were measured at BASi in West Lafayette, Ind., using a validated LC/MS/MS method with positive turbo ion spray, in the multiple reaction-monitoring mode. The quantifiable range for the assay was 0.05 to 50 μg/mL and QC samples were included at 0.15, 10 and 37.5 μg/mL. Toxicokinetic analysis was performed using WinNonlin version 5.1 by calculation of standard parameters.

[2] = test system: myocardial I/R injury; assay: Incidence of acute cardiac dysfunction and mortality in rat model of myocardial I/R injury; format: in vivo
Experimental: The incidence of acute cardiac dysfunction associated with arrhythmia and cardiac arrest requiring intervention and the incidence of mortality due to these co-morbidities was examined in the rat model of myocardial I/R injury described herein for different dosages and dosage regimens for administering RLip-EA-OH. In vivo experiments were performed as described in Example 8 using dosage intervals described in Example 10. Treatments (i.e., vehicle, RLip-EA-OH) were administered as a left intra-ventricular injection, IV bolus, IV infusion, or orally. Specifically, the incidence of non-self-resolving cardiac dysfunction (i.e., extended fibrillation arrhythmia, sudden cardiac arrest) during ischemia and requiring intervention (direct mechanical cardiac resuscitation), and mortality associated with cardiac dysfunction were observed.

[3] = test system: Akt; assay: Cytoblot assay for Akt activation in A549 cells; format: cell-based, human
Experimental: The ability of RLip-EA-OH to increase phosphorylated Akt was assayed using an in-cell western blot, or cytoblot. A549 cells (human non-small cell lung cancer cell line) were selected because these cells can be manipulated to increase or decrease the level of phosphoryated Akt. The cells were inoculated onto culture plates and allowed to adhere to the bottom, then treated, fixed, and permeabilized. Following permeabilization, the cells were treated with antibodies specific for either phospho-Akt or total Akt. The cells were then treated with fluorescent secondary antibodies to quantify the amount of bound primary antibody. Total Akt and phospho-Akt were simultaneously detected.
A549 cells were plated in 384 well black-wall, clear-bottom, cell culture-treated microtiter plates at 70% confluence. Cells were incubated overnight to allow cell attachment. The media was changed to low serum (0.1%, fetal bovine serum [FBS]) and the cells were incubated for another 24 hours. Cells were treated with test compounds, fixed and permeabilized for the Akt assay. The fixative was 3.7% formaldehyde in phosphate buffered saline. The permeabilization buffer was 0.5% Triton X-100 in phosphate buffered saline. After permeabilization of cells, the amounts of total Akt and phosphorylated Akt at either of the two phosphorylation sites (threonine-308 and serine-473) were determined at 7 test concentrations, each performed in quadruplicate. The phospho-Akt data were normalized to total Akt and background subtracted for analysis.
Following overnight serum starvation to reduce basal Akt phosphorylation, cells were stimulated with vehicle, RLip-EA-OH, or RLip-OH. Cells were treated for 45 minutes or 3 hours and studied for phosphorylation at serine-473 or threonine 308, respectively.

C[C@H](NC(=O)[C@H](CCC(=O)O)NC(=O)CCCC[C@@H]1CCSS1)C(=O)O [RLip-EA-OH, N-(R)-lipoyl-L-glutamyl-L- alanine]
AUC(0-inf) ([1]; plasma, 30 mg/kg IV infusion): ~7000 ng·h/mL
Cmax ([1]; plasma, 30 mg/kg IV infusion): 20000 ng/mL
clearance ([1]; plasma, 30 mg/kg IV infusion): 75 mL/min/kg
Vd ([1]; plasma, 30 mg/kg IV infusion, read-out: Vss): 1.2 L/kg
half-life ([1]; plasma, 30 mg/kg IV infusion, read-out: t½ (converted)): 9 min
half-life ([1]; serum, intravenous, rats, dose of 30 mg/kg, read-out: serum half-life): ~9 min
Intervention due to Arrhythmia/Arrest (%) ([2]; Multi-dose (2x)): 3\19 (16) %
Mortality (%) ([2]; Multi-dose (2x)): 1\19 (5) %
Intervention due to Arrhythmia/Arrest (%) ([2]; Multi-dose (3x)): 4\18 (22) %
Mortality (%) ([2]; Multi-dose (3x)): 1\18 (5) %
Intervention due to Arrhythmia/Arrest (%) ([2]; Single dose): 6\17 (35) %
Mortality (%) ([2]; Single dose): 2\17 (12) %
increase in phosphorylated Akt at serine 473 ([3]; 45 minutes of treatment): 3 fold
Akt phosphorylation at threonine-308 ([3]; 3 hours of treatment, compound alone): Increased Akt phosphorylation
amount of phosphorylated Akt relative to total Akt ([3]; variant concentrations): increased the amount of phosphorylated Akt relative to total Akt in a dose dependent manner
